Data: ChEMBL document CHEMBL5036320, “Discovery of Icenticaftor (QBW251), a Cystic Fibrosis Transmembrane Conductance Regulator Potentiator with Clinical Efficacy in Cystic Fibrosis and Chronic Obstructive Pulmonary Disease” (J Med Chem, 2021)
≈ marks a conversion by molar mass, not a printed value.

What was measured:
[1] = target: T1, Cystic fibrosis transmembrane conductance regulator (Homo sapiens, UniProt P13569, F508DEL); experiment: Potentiation of CFTR F508del mutant (unknown origin) expressed in CHO cells assessed as chloride transport by measuring membrane potential incubated for 5 to 30 mins in presence of forskolin by Quattro assay; format: cell-based
T1 sequence (P13569 as listed by the source): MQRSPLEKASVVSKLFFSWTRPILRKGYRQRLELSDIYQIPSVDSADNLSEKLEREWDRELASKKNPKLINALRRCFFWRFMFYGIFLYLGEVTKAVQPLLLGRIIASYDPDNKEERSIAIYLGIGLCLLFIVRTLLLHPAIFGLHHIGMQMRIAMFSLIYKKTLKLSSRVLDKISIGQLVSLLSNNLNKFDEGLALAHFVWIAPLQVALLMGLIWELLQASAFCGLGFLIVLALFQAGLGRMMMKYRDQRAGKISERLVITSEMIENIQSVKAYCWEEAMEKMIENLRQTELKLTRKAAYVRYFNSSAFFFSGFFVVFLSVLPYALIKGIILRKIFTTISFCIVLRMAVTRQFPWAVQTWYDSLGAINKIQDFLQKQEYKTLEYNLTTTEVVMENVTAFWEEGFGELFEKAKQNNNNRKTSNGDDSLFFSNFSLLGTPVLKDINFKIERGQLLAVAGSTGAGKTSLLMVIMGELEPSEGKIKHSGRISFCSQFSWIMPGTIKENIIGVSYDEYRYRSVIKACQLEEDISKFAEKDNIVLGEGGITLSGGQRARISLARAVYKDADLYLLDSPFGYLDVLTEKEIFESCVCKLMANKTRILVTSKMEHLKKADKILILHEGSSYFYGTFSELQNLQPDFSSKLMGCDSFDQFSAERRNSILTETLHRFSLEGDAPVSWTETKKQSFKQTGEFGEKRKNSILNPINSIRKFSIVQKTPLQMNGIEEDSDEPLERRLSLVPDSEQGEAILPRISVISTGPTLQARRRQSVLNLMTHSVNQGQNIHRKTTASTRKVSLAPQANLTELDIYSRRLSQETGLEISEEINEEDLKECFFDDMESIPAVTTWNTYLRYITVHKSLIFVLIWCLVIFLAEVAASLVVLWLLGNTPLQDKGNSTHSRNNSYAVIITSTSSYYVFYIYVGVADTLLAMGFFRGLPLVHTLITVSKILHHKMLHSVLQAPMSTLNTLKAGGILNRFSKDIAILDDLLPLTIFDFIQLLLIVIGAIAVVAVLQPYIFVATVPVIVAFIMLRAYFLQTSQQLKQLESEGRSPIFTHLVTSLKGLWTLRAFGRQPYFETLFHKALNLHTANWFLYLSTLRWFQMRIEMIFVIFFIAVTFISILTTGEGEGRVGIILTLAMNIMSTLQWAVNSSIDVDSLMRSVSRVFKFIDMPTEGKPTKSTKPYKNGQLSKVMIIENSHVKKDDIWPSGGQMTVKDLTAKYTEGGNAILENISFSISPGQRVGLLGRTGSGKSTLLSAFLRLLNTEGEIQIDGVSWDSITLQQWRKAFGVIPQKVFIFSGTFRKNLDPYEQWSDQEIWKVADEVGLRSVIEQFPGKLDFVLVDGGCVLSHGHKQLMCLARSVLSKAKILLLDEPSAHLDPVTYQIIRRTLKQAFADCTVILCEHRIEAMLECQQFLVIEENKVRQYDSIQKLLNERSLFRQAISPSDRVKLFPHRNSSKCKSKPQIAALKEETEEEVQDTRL

[2] = Plasma Protein binding in human incubated for 4 hrs by equilibrium dialysis method; format: ADME, cell-free; settings: read-out: PPB (converted)
[3] = Plasma protein binding in Beagle dog at 5 uM incubated for 4 hrs by equilibrium dialysis method; format: ADME, cell-free, Canis lupus familiaris; settings: read-out: PPB (converted)
[4] = Plasma protein binding in cynomolgus monkey at 5 uM incubated for 4 hrs by equilibrium dialysis method; format: ADME, cell-free, Macaca fascicularis; settings: read-out: PPB (converted)
[5] = tested on: Cystic fibrosis transmembrane conductance regulator (Homo sapiens), P13569 [F508del]; experiment: Potentiation of CFTR F508del mutant (unknown origin) expressed in CHO cells assessed as chloride transport by measuring membrane potential incubated for 5 to 30 mins in presence of forskolin by Quattro assay relative to PG-01; format: cell-based; parameters: concentration or dose not given beside the values; settings: filed as activator, time 5-30 min
Chain of Cystic fibrosis transmembrane conductance regulator (Homo sapiens), P13569 [F508del] (P13569 as listed by the source): as above

[6] = target: T2, Cystic fibrosis transmembrane conductance regulator (Homo sapiens, UniProt P13569); experiment: Potentiation of wild-type CFTR (unknown origin) expressed in FRT cells assessed as chloride transport by measuring membrane potential in presence of forskolin; format: cell-based
Target sequence in this assay (P13569 whole entry): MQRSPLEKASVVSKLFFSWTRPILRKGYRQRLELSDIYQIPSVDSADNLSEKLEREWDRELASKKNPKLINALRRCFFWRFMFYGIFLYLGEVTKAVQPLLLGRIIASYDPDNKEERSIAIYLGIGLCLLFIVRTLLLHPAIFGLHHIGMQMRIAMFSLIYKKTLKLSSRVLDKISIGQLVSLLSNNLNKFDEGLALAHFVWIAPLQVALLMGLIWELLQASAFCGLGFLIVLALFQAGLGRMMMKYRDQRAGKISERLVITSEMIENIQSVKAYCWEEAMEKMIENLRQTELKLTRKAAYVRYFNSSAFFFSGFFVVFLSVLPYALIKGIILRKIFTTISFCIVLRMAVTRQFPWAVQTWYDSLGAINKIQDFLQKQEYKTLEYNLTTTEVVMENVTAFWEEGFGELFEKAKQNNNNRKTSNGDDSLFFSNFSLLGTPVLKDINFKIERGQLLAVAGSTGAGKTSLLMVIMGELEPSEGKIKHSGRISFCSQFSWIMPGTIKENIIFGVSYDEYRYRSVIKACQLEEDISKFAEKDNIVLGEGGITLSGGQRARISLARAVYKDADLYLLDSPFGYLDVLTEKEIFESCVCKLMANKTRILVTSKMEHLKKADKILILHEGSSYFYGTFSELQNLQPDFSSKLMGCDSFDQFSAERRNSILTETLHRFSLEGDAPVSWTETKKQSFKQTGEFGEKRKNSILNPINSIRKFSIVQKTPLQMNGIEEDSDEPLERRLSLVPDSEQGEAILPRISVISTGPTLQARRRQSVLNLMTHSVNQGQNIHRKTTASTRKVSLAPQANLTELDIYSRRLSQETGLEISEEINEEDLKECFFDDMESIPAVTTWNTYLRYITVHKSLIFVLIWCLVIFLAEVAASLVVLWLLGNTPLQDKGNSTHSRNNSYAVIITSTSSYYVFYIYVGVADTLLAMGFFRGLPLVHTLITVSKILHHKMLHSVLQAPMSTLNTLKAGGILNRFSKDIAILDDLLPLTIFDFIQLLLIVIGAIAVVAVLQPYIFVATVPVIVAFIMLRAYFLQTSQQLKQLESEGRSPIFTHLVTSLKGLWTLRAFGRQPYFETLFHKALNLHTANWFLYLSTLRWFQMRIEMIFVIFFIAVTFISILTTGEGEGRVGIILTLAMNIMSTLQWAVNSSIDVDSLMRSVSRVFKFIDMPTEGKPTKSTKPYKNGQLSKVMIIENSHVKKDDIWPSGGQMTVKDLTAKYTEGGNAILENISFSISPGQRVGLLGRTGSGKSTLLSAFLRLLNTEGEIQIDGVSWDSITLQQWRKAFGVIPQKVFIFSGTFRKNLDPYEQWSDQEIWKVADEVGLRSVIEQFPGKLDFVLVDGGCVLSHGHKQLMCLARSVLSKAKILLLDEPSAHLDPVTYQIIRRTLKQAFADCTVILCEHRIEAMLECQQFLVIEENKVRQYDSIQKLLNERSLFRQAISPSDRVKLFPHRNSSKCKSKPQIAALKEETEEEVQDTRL

[7] = target: T2, Cystic fibrosis transmembrane conductance regulator; experiment: Potentiation of wild type CFTR (unknown origin) expressed in HBE cells assessed as change in short circuit current in presence of forskolin and amiloride; format: cell-based
Target sequence in this assay (P13569 whole entry): as above

[8] = target: T1, Cystic fibrosis transmembrane conductance regulator; experiment: Potentiation of CFTR F508del mutant (unknown origin) expressed in FRT cells assessed as chloride transport by measuring membrane potential in presence of forskolin; format: cell-based
[9] = target: T1, Cystic fibrosis transmembrane conductance regulator; experiment: Potentiation of CFTR F508 deletion mutant (unknown origin) expressed in HBE cells assessed as change in short circuit current in presence of forskolin and amiloride; format: cell-based
[10] = target: Cystic fibrosis transmembrane conductance regulator (Homo sapiens, UniProt P13569, G551D); experiment: Potentiation of CFTR G551D mutant (unknown origin) expressed in FRT cells assessed as chloride transport by measuring membrane potential in presence of forskolin; format: cell-based
Chain of Cystic fibrosis transmembrane conductance regulator (Homo sapiens, UniProt P13569, G551D) (P13569 whole entry G551D): as the sequence (P13569 whole entry) above, with G551D counted along it

[11] = Solubility of the compound at pH 6.8; format: physicochemical; settings: buffer
[12] = target: T2, Cystic fibrosis transmembrane conductance regulator; experiment: Potentiation of wild-type CFTR (unknown origin) expressed in FRT cells assessed as chloride transport by measuring membrane potential in presence of forskolin relative to PG-01; format: cell-based; settings: filed as activator
Target sequence in this assay (P13569 whole entry, looked up): as the sequence (P13569 whole entry) above

[13] = target: T1, Cystic fibrosis transmembrane conductance regulator; experiment: Potentiation of CFTR F508del mutant (unknown origin) expressed in CHO cells assessed as chloride transport by measuring membrane potential preincubated for 5 mins followed by forskolin addition by FLIPR assay; format: cell-based
[14] = Clearance in Sprague-Dawley rat at 5 mg/kg, po or 0.5 mg/kg, iv measured upto 48 hrs by LC-MS/MS analysis; format: ADME, organism-based; settings: in vivo
[15] = tested on: Cystic fibrosis transmembrane conductance regulator (Homo sapiens), P13569 [F508del]; experiment: Potentiation of CFTR F508del mutant (unknown origin) expressed in FRT cells assessed as chloride transport by measuring membrane potential in presence of forskolin relative to PG-01; format: cell-based; settings: filed as activator
[16] = Mean residence time in Sprague-Dawley rat at 5 mg/kg, po or 0.5 mg/kg, iv measured upto 48 hrs by LC-MS/MS analysis; format: ADME, organism-based; settings: in vivo
[17] = tested on: Cystic fibrosis transmembrane conductance regulator (Homo sapiens), P13569 [F508del]; experiment: Potentiation of CFTR F508del mutant (unknown origin) expressed in CHO cells assessed as chloride transport by measuring membrane potential preincubated for 5 mins followed by forskolin addition by FLIPR assay relative to PG-01; format: cell-based; settings: filed as activator
[18] = Oral bioavailability in Sprague-Dawley rat at 5 mg/kg measured upto 48 hrs by LC-MS/MS analysis; format: ADME, organism-based; settings: in vivo
[19] = Plasma Protein binding in Sprague-Dawley rat at 5 uM incubated for 4 hrs by rapid equilibrium dialysis; format: ADME, cell-free; settings: read-out: PPB (converted)
[20] = Volume of distribution at steady state in Sprague-Dawley rat at 5 mg/kg, po or 0.5 mg/kg, iv measured upto 48 hrs by LC-MS/MS analysis; format: ADME, organism-based; settings: in vivo, read-out: Vdss
[21] = Clearance in Sprague-Dawley rat at 3 mg/kg, po and 1 mg/kg, iv measured upto 48 hrs by LC MS/MS analysis; format: ADME, organism-based; settings: in vivo
[22] = tested on: Cystic fibrosis transmembrane conductance regulator (Homo sapiens), P13569 [F508del]; experiment: Potentiation of CFTR F508 deletion mutant (unknown origin) expressed in HBE cells assessed as change in short circuit current in presence of forskolin and amiloride relative to PG-01; format: cell-based; settings: filed as activator
[23] = Drug metabolism in Sprague-Dawley rat bile assessed as glutathione adduct M8 formation at 1 mg/kg, po after 24 hrs by LC MS/MS analysis; format: ADME, organism-based; settings: in vivo
[24] = Cmax in Sprague-Dawley rat at 3 mg/kg, po and 1 mg/kg, iv measured upto 48 hrs by LC-MS/MS analysis; format: ADME, organism-based; parameters: dose 3 mg/kg, time <=48; settings: in vivo
[25] = Oral bioavailability in Sprague-Dawley rat at 3 mg/kg measured upto 48 hrs by LC-MS/MS analysis; format: ADME, organism-based; settings: in vivo
[26] = Toxicity in Wistar Han rat assessed as NOAEL; settings: in vivo, dose 10 mg/kg
[27] = Drug metabolism in Sprague-Dawley rat bile assessed as glutathione adduct M9 formation at 1 mg/kg, po after 24 hrs by LC MS/MS analysis; format: ADME, organism-based; settings: in vivo
[28] = Mean residence time in Sprague-Dawley rat at 3 mg/kg, po and 1 mg/kg, iv measured upto 48 hrs by LC-MS/MS analysis; format: ADME, organism-based; settings: in vivo
[29] = Volume of distribution in Sprague-Dawley rat at 3 mg/kg, po and 1 mg/kg, iv measured upto 48 hrs by LC-MS/MS analysis; format: ADME, organism-based; settings: in vivo
[30] = Unbound Cmax in Sprague-Dawley rat at 3 mg/kg, po and 1 mg/kg, iv measured upto 48 hrs by LC-MS/MS analysis; format: ADME, organism-based; settings: in vivo
[31] = tested on: Cystic fibrosis transmembrane conductance regulator (Homo sapiens), P13569 [G551D]; experiment: Potentiation of CFTR G551D mutant (unknown origin) expressed in FRT cells assessed as chloride transport by measuring membrane potential in presence of forskolin relative to PG-01; format: cell-based; settings: filed as activator
Chain of Cystic fibrosis transmembrane conductance regulator (Homo sapiens), P13569 [G551D] (P13569 whole entry G551D): as the sequence (P13569 whole entry) above, with G551D counted along it

## CN(C)c1nc(C(=O)NCC(C)(O)C(F)(F)F)c(N)cc1C(F)(F)F (stereo in doubt; 31b)
[1]
  EC50: 0.046 µM

## COc1nc(C(=O)NC[14C](C)(O)C(F)(F)F)c(N)cc1C(F)(F)F (stereo not given)
[2]
  fraction unbound at 4 h: 0.077
[3]
  fraction unbound at 4 h, 5 µM: 0.052
[4]
  fraction unbound at 4 h, 5 µM: 0.12

## CCc1nc(C(=O)NCC(C)(O)C(F)(F)F)c(N)cc1C(F)(F)F (stereo in doubt; 28a) [listing 1 of 2 here]
[5]
  Activity: 100%

## CC(C)(C)c1cc(C(C)(C)C)c(NC(=O)c2c[nH]c3ccccc3c2=O)cc1O [IVACAFTOR]
[6]
  EC50: 0.07 µM
[7]
  EC50: 0.034 µM
[8]
  EC50: 0.049 µM
[9]
  EC50: 0.068 µM
[10]
  EC50: 0.131 µM

## CC(O)(CNC(=O)c1ncc(C(F)(F)F)cc1N)C(F)(F)F (racemic)
[5]
  Activity: 78%
[1]
  EC50: 0.229 µM

## CN(C)c1nc(C(=O)NCC(C)(O)C(F)(F)F)c(N)cc1C(F)(F)F (stereo in doubt; 31a)
[5]
  Activity: 89%

## Nc1cc(C(F)(F)F)c(Br)nc1C(=O)NC[C@H](O)C(F)(F)F
[5]
  Activity: 102%
[1]
  EC50: 0.023 µM
[11]
  solubility: 290 µg/mL (≈ 732 µM)

## COC(=O)c1ccccc1N [METHYL ANTHRANILATE]
[1]
  EC50: 30 µM

## COC(=O)c1cc(-c2ncco2)c(C(F)(F)F)cc1N
[5]
  Activity: 92%
[1]
  EC50: 0.24 µM
[11]
  solubility: 36 µg/mL (≈ 126 µM)

## CNC(=O)c1cc(-c2ccco2)c(C(F)(F)F)cc1N
[5]
  Activity: 83%
[1]
  EC50: 1.86 µM
[11]
  solubility: 13 µg/mL (≈ 45.7 µM)

## CCc1nc(C(=O)NCC(C)(O)C(F)(F)F)c(N)cc1C(F)(F)F (stereo in doubt; 28a) [listing 2 of 2 here]
[1]
  EC50: 0.008 µM
[11]
  solubility: 91 µg/mL (≈ 253 µM)

## CNc1nc(C(=O)NCC(C)(O)C(F)(F)F)c(N)cc1C(F)(F)F (stereo in doubt; 30b)
[5]
  Activity: 95%

## COC(=O)c1cc(-c2ccco2)c(C(F)(F)F)cc1N
[12]
  Activity: 206%
[5]
  Activity: 93%
[6]
  EC50: 30 µM
[13]
  EC50: 0.92 µM
[1]
  EC50: 0.078 µM
[14]
  clearance: 30 mL/min/kg
[15]
  Activity: 100%
[16]
  MRT: 0.2 h
[8]
  EC50: 0.18 µM
[17]
  Activity: 154%
[18]
  bioavailability: 15%
[19]
  fraction unbound at 4 h, 5 µM: 0.005
[11]
  solubility: < 1 µg/mL
[20]
  Vd: 0.4 L/kg

## COC(=O)c1cc(I)c(C(F)(F)F)cc1N
[5]
  Activity: 104%
[1]
  EC50: 0.362 µM
[11]
  solubility: 2 µg/mL (≈ 5.8 µM)

## CC(C)(O)CNC(=O)c1nc(Br)c(C(F)(F)F)cc1N
[5]
  Activity: 101%
[1]
  EC50: 0.077 µM
[11]
  solubility: 28 µg/mL (≈ 78.6 µM)

## Nc1cc(C(F)(F)F)c(Br)nc1C(=O)NCC(O)(C(F)(F)F)C(F)(F)F
[5]
  Activity: 117%
[1]
  EC50: 0.01 µM
[11]
  solubility: 3 µg/mL (≈ 6.46 µM)

## CCc1nc(C(=O)NCC(C)(O)C(F)(F)F)c(N)cc1C(F)(F)F (stereo in doubt; 28b)
[1]
  EC50: 0.043 µM

## COC(=O)c1nc(-c2ccco2)c(C(F)(F)F)cc1N
[5]
  Activity: 72%
[1]
  EC50: 5.31 µM
[11]
  solubility: 11 µg/mL (≈ 38.4 µM)

## C[C@](O)(CNC(=O)c1nc(Br)c(C(F)(F)F)cc1N)C(F)(F)F
[12]
  Activity: 140%
[5]
  Activity: 107%
[21]
  clearance: 17 mL/min/kg
[6]
  EC50: 0.043 µM
[22]
  Activity: 113%
[23]
  Drug metabolism: Metabolite_Detected
[1]
  EC50: 0.015 µM
[24]
  Cmax: 634 nM
[2]
  fraction unbound at 4 h: 0.025
[25]
  bioavailability: 114%
[15]
  Activity: 106%
[26]
  NOAEL: < 10 mg/kg
[8]
  EC50: 0.018 µM
[19]
  fraction unbound at 4 h, 5 µM: 0.031
[27]
  Drug metabolism: Metabolite_Detected
[28]
  MRT: 6.4 h
[29]
  Vd: 6.5 L/kg
[11]
  solubility: 140 µg/mL (≈ 341 µM)
[9]
  EC50: 0.025 µM
[30]
  fCmax: 25 nM
[31]
  Activity: 67%
[10]
  EC50: 0.15 µM
